The compounds below were run against T1, MAGL (Homo sapiens, UniProt Q99685) (assay: In vitro competitive activity-based protein profiling, MAGL, human). Conditions: read-out: MAGL % inh. 1 μM (human).
T1 sequence (Q99685 1-303): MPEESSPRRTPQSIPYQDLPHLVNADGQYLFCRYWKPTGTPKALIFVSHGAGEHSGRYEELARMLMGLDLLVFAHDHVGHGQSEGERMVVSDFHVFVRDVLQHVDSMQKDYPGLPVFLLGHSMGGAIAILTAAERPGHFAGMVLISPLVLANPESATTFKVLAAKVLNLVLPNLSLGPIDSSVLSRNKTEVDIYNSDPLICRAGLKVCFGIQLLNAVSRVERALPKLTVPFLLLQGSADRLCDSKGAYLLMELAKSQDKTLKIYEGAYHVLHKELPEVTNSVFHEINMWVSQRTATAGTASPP
Protocol: Biological Evaluation In Vitro Competitive Activity-Based Protein Profiling.
Proteomes (mouse brain membrane fraction for mouse assays; human prefrontal cortex membrane fractions for human assays) (50 mL, 1.0 mg/mL total protein concentration) were preincubated with varying concentrations of inhibitors at 37° C. After 30 min, FP-Rh (1.0 mL, 50 mM in DMSO) was added and the mixture was incubated for another 30 min at 37° C. Reactions were quenched with SDS loading buffer (15 μL—4λ) and run on SDS-PAGE.
Work on `CCOc1cc(CN2CCC3(CCN(C(=O)n4ccc(C(=O)O)n4)CC3)C2)ccc1Cl` [Example 21, 1-(2-(4-chloro-3-ethoxybenzyl)-2,8-diazaspiro[4.5]decane-8-carbonyl)-1H-pyrazole-3-carboxylic acid] yielded an inhibition at 1 µM of 25 to 50%.
For `NC(=O)c1ccn(C(=O)N2CCC3(CCCN3Cc3cc4ccc(C(F)(F)F)cc4s3)CC2)n1` [Example 22, 1-(1-((6-(Trifluoromethyl)benzo[b]thiophen-2-yl)methyl)-1,8-diazaspiro[4.5]decane-8-carbonyl)-1H-pyrazole-3-carboxamide], the inhibition at 1 µM was > 75%.
In the case of `C[C@H]1C[C@@H](N(C)Cc2cccc(C(F)(F)F)c2)CCN1C(=O)n1ccc(C(N)=O)n1` [Example 24, 1-((2S,4S)-2-Methyl-4-(methyl(3-(trifluoromethyl)benzyl)amino)piperidine-1-carbonyl)-1H-pyrazole-3-carboxamide], the inhibition at 1 µM is reported as > 75%.

Same assay, conditions: read-out: MAGL % inh. (human) at 10 uM
With `O=C(O)c1ccn(C(=O)N2C[C@H]3C[C@H](NCc4cccc(-c5ccccc5)c4)C[C@H]3C2)n1` [Example 273, 1-(trans-5-(([1,1′-biphenyl]-3-ylmethyl)amino)octahydrocyclopenta [c]pyrrole-2-carbonyl)-1H-pyrazole-3-carboxylic acid] the inhibition at 10 µM was > 75%.
For `O=C(O)c1ccn(C(=O)N2C[C@H]3C[C@H](OCc4cccc(-c5cscn5)c4Cl)C[C@H]3C2)n1` [Example 447, 1-(trans-5-((2-chloro-3-(thiazol-4-yl)benzyl)oxy)octa-hydrocyclopenta[c]pyrrole-2-carbonyl)-1H-pyrazole-3-carboxylic acid], the inhibition at 10 µM was > 75%.

Each compound was assayed against T2, MAGL (Mus musculus, UniProt O35678) (assay: In vitro competitive activity-based protein profiling, MAGL, mouse). Conditions: read-out: MAGL % inh. 1 μM (mouse).
T2 sequence (O35678 1-303): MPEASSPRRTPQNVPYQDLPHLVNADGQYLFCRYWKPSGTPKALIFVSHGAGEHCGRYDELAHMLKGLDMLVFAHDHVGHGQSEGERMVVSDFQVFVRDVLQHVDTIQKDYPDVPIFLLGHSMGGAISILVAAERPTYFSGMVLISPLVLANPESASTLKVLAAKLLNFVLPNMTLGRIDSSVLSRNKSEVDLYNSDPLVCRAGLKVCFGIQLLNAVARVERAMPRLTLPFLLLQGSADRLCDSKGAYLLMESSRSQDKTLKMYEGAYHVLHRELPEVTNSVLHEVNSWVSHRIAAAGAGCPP
With `CCOc1cc(CN2CCC3(CCN(C(=O)n4ccc(C(=O)O)n4)CC3)C2)ccc1Cl` [Example 21, 1-(2-(4-chloro-3-ethoxybenzyl)-2,8-diazaspiro[4.5]decane-8-carbonyl)-1H-pyrazole-3-carboxylic acid] the inhibition at 1 µM was 25 to 50%.
In the case of `NC(=O)c1ccn(C(=O)N2CCC3(CCCN3Cc3cc4ccc(C(F)(F)F)cc4s3)CC2)n1` [Example 22, 1-(1-((6-(Trifluoromethyl)benzo[b]thiophen-2-yl)methyl)-1,8-diazaspiro[4.5]decane-8-carbonyl)-1H-pyrazole-3-carboxamide], the inhibition at 1 µM is reported as > 75%.
`C[C@H]1C[C@@H](N(C)Cc2cccc(C(F)(F)F)c2)CCN1C(=O)n1ccc(C(N)=O)n1` [Example 24, 1-((2S,4S)-2-Methyl-4-(methyl(3-(trifluoromethyl)benzyl)amino)piperidine-1-carbonyl)-1H-pyrazole-3-carboxamide] was tested, and the inhibition at 1 µM was > 75%.
`C[C@H]1CC(N(C)Cc2ccc(C(F)(F)F)cc2N2CCCC2)CCN1C(=O)n1cc(Cl)c(C(=O)O)n1` (stereo partly drawn) [Example 33, 4-Chloro-1-((2S)-2-methyl-4-(methyl(2-(pyrrolidin-1-yl)-4-(trifluoromethyl)benzyl)amino)piperidine-1-carbonyl)-1H-pyrazole-3-carboxylic Acid] was tested, and the inhibition at 1 µM was 50 to 75%.
`NC(=O)c1ccn(C(=O)N2CCN(Cc3cccc(C4(O)CCOCC4)c3)CC2)n1` [Example 237, 1-(4-(3-(4-hydroxytetrahydro-2H-pyran-4-yl)benzyl)piperazine-1-carbonyl)-1H-pyrazole-3-carboxamide] was tested, and the inhibition at 1 µM was > 75%.
For `Cc1cc(CN2CCCC23CCN(C(=O)n2ccc(C(=O)O)n2)CC3)cc(C(F)(F)F)c1` [Example 303, 1-(1-(3-methyl-5-(trifluoromethyl)benzyl)-1,8-diazaspiro[4.5]decane-8-carbonyl)-1H-pyrazole-3-carboxylic acid], the inhibition at 1 µM was > 75%.
For `O=C(O)c1ccn(C(=O)N2CCC3(CCCN3Cc3cc(Cl)cc(N4CCCC4)c3)CC2)n1` [Example 344, 1-(1-(3-chloro-5-(pyrrolidin-1-yl)benzyl)-1,8-diazaspiro[4.5]decane-8-carbonyl)-1H-pyrazole-3-carboxylic acid], the inhibition at 1 µM was > 75%.
In the case of `CNC(=O)c1ccn(C(=O)N2CCN(Cc3ccc(Cl)cc3)CC2)n1` [Example 420, 1-(4-(4-chlorobenzyl)piper-azine-1-carbonyl)-N-methyl-1H-pyrazole-3-carboxamide], the inhibition at 1 µM is reported as > 75%.
With `NC(=O)c1ccn(C(=O)N2CCC3(CCN(Cc4ccc(Cl)cc4)C3)C2)n1` (centres unmarked) [Example 421, 1-(7-(4-chlorobenzyl)-2,7-diazaspiro[4.4]non-ane-2-carbonyl)-1H-pyrazole-3-carboxamide] the inhibition at 1 µM was > 75%.
For `CNC(=O)c1ccn(C(=O)N2CCN(Cc3cccc(Oc4ccccc4)c3)CC2)n1` [Example 423, N-methyl-1-(4-(3-phenoxybenzyl)piperazine-1-carbonyl)-1H-pyrazole-3-carboxamide], the inhibition at 1 µM was > 75%.
`CNC(=O)c1ccn(C(=O)N2CC3CN(Cc4ccc(C(F)(F)F)cc4)CC3C2)n1` (centres unmarked) [Example 425, N-methyl-1-(5-(4-(trifluoromethyl)benzyl)octahydro-pyrrolo[3,4-c]pyrrole-2-carbonyl)-1H-pyrazole-3-carboxamide] was tested, and the inhibition at 1 µM was > 75%.
`CNC(=O)c1ccn(C(=O)N2CCC3(CCN(Cc4cc(Cl)ccc4Cl)C3)C2)n1` (centres unmarked) [Example 428, 1-(7-(2,5-dichlorobenzyl)-2,7-diazaspiro[4.4]non-ane-2-carbonyl)-N-methyl-1H-pyrazole-3-carboxamide] was tested, and the inhibition at 1 µM was > 75%.
In the case of `NC(=O)c1ccn(C(=O)N2CCC3(CCN(Cc4cccc(C(F)(F)F)c4)C3)C2)n1` (centres unmarked) [Example 429, 1-(7-(3-(trifluoromethyl)benzyl)-2,7-diazaspiro[4.4]non-ane-2-carbonyl)-1H-pyrazole-3-carboxamide], the inhibition at 1 µM is reported as > 75%.
`CNC(=O)c1ccn(C(=O)N2CC3CN(Cc4cc(Cl)ccc4Cl)CC3C2)n1` (centres unmarked) [Example 430, 1-(5-(2,5-dichlorobenzyl)octa-hydropyrrolo[3,4-c]pyrrole-2-carbonyl)-N-methyl-1H-pyrazole-3-carboxamide] was tested, and the inhibition at 1 µM was > 75%.
In the case of `CNC(=O)c1ccn(C(=O)N2CC3CN(Cc4cccc(C(F)(F)F)c4)CC3C2)n1` (centres unmarked) [Example 432, N-methyl-1-(5-(3-(trifluoromethyl)benzyl)octahydro-pyrrolo[3,4-c]pyrrole-2-carbonyl)-1H-pyrazole-3-carboxamide], the inhibition at 1 µM is reported as > 75%.
In the case of `CNC(=O)c1ccn(C(=O)N2C[C@H]3C[C@@H](N(C)Cc4ccccc4C(F)(F)F)C[C@H]3C2)n1` [Example 434, N-methyl-1-(cis-5-(methyl(2-(trifluoromethyl)benzyl)amino)octa-hydrocyclopenta[c]pyrrole-2-carbonyl)-1H-pyrazole-3-carboxamide], the inhibition at 1 µM is reported as > 75%.
With `CNC(=O)c1ccn(C(=O)N2CCC3(CCN(Cc4cc(Cl)cc(C(F)(F)F)c4)C3)C2)n1` (centres unmarked) [Example 435, 1-(7-(3-chloro-5-(trifluoromethyl)benzyl)-2,7-diazaspiro[4.4]non-ane-2-carbonyl)-N-methyl-1H-pyrazole-3-carboxamide] the inhibition at 1 µM was > 75%.
In the case of `NC(=O)c1ccn(C(=O)N2CCC3(CCN(Cc4ccc(N5CCOCC5)cc4C(F)(F)F)C3)C2)n1` (centres unmarked) [Example 436, 1-(7-(4-morpholino-2-(trifluoromethyl)benzyl)-2,7-diazaspiro[4.4]non-ane-2-carbonyl)-1H-pyrazole-3-carboxamide], the inhibition at 1 µM is reported as > 75%.
In the case of `CNC(=O)c1ccn(C(=O)N2CC3CN(Cc4cc(Cl)cc(C(F)(F)F)c4)CC3C2)n1` (centres unmarked) [Example 437, 1-(5-(3-chloro-5-(trifluoromethyl)benzyl)octahydro-pyrrolo[3,4-c]pyrrole-2-carbonyl)-N-methyl-1H-pyrazole-3-carboxamide], the inhibition at 1 µM is reported as > 75%.
With `CNC(=O)c1ccn(C(=O)N2C[C@H]3C[C@@H](N(C)Cc4ccc(C(F)(F)F)cc4)C[C@H]3C2)n1` [Example 439, N-methyl-1-(cis-5-(methyl(4-(trifluoromethyl)benzyl)amino)octa-hydrocyclopenta[c]pyrrole-2-carbonyl)-1H-pyrazole-3-carboxamide] the inhibition at 1 µM was > 75%.
In the case of `CNC(=O)c1ccn(C(=O)N2CC3CN(Cc4ccc(N5CCOCC5)cc4C(F)(F)F)CC3C2)n1` (centres unmarked) [Example 440, N-methyl-1-(5-(4-morpholino-2-(trifluoromethyl)benzyl)octahydro-pyrrolo[3,4-c]pyrrole-2-carbonyl)-1H-pyrazole-3-carboxamide], the inhibition at 1 µM is reported as > 75%.
With `Cc1cn(C(=O)N2CCN(Cc3cccc(Oc4ccc(Cl)cc4)c3)C[C@@H]2C)nc1C(=O)O` [Example 442, (S)-1-(4-(3-(4-chlorophenoxy)benzyl)-2-methylpiperazine-1-carbonyl)-4-methyl-1H-pyrazole-3-carboxylic acid] the inhibition at 1 µM was > 75%.
For `O=C(O)c1nn(C(=O)N2CCN(Cc3ccc(C(F)(F)F)cc3N3CCCC3)CC2)cc1Cl` [Example 443, 4-chloro-1-(4-(2-(pyrrolidin-1-yl)-4-(trifluoromethyl)benzyl)piperazine-1-carbonyl)-1H-pyrazole-3-carboxylic acid], the inhibition at 1 µM was > 75%.
`COc1cccc(O[C@H]2C[C@@H]3CN(C(=O)n4ccc(C(=O)O)n4)C[C@@H]3C2)c1Cl` [Example 445, 1-(trans-5-(2-chloro-3-methoxyphenoxy)octahydrocyclopenta [c]pyrrole-2-carbonyl)-1H-pyrazole-3-carboxylic acid] was tested, and the inhibition at 1 µM was > 75%.
For `O=C(O)c1ccn(C(=O)N2C[C@H]3C[C@H](Oc4cccc(-c5cscn5)c4Cl)C[C@H]3C2)n1` [Example 446, 1-(trans-5-(2-chloro-3-(thiazol-4-yl)phenoxy)octa-hydrocyclopenta[c]pyrrole-2-carbonyl)-1H-pyrazole-3-carboxylic acid], the inhibition at 1 µM was > 75%.
`CC(C)COc1cccc(O[C@H]2C[C@@H]3CN(C(=O)n4ccc(C(=O)O)n4)C[C@@H]3C2)c1Cl` [Example 448, 1-(trans-5-(2-chloro-3-isobutoxyphenoxy)octahydrocyclopenta [c]pyrrole-2-carbonyl)-1H-pyrazole-3-carboxylic acid] was tested, and the inhibition at 1 µM was > 75%.
In the case of `O=C(O)c1nn(C(=O)N2CCN(Cc3cccc(C(F)(F)F)c3N3CCOCC3)CC2)cc1Cl` [Example 449, 4-chloro-1-(4-(2-morpholino-3-(trifluoromethyl)benzyl)piperazine-1-carbonyl)-1H-pyrazole-3-carboxylic acid], the inhibition at 1 µM is reported as > 75%.

— patent US10266497B2 (ABIDE THERAPEUTICS, INC., priority 2017, dated 2019)
